Experiment: Compatibility of orlistat with surfactants
Type: physicochemical
Details: Chremophor EL emulsifying agent

For `CCCCCCCCCCC[C@@H](C[C@@H]1OC(=O)[C@H]1CCCCCC)OC(=O)[C@H](CC(C)C)NC=O` [orlistat], the “effect of surfactant on degradation of orlistat” value was “accelerate degradation”.

Reference: patent publication US8309107B2, “Stable solutions of orlistat for pharmaceutical dosage forms” (Banner Pharmacaps, Inc., priority 2008, dated 2012)
